This data set has as its system CCRIS mutagenicity, Ames/micronucleus/aberration tests. The data set can be described thus: CCRIS mutagenicity studies.
Setting [1] is: Test System: AMES SALMONELLA TYPHIMURIUM, Strain/Indicator: TA98, Metabolic Activation: NONE, Method: PREINCUBATION
Setting [2] is: Test System: AMES SALMONELLA TYPHIMURIUM, Strain/Indicator: TA100, Metabolic Activation: NONE, Method: PREINCUBATION

Results on 8 molecules are retold here after PubChem BioAssay AID1259407 (Chemical Carcinogenesis Research Information System (CCRIS), 2018).

Calls of active or inactive are those of the source. How the calls were made is not given here.

Turning to `C=CC(=O)NC(C)(C)CC(C)=O`, the mutagenic call runs as follows: (Test System: AMES SALMONELLA TYPHIMURIUM, Strain/Indicator: TA98, Metabolic Activation: HAMSTER, LIVER, S-9, AROCLOR 1254, Method: PREINCUBATION) “inactive; negative”; under setting [1], “inactive; negative”; (Test System: AMES SALMONELLA TYPHIMURIUM, Strain/Indicator: TA98, Metabolic Activation: RAT, LIVER, S-9, AROCLOR 1254, Method: PREINCUBATION) “inactive; negative”; (Test System: AMES SALMONELLA TYPHIMURIUM, Strain/Indicator: TA100, Metabolic Activation: HAMSTER, LIVER, S-9, AROCLOR 1254, Method: PREINCUBATION) “inactive; negative”; under setting [2], “inactive; negative”; (Test System: AMES SALMONELLA TYPHIMURIUM, Strain/Indicator: TA100, Metabolic Activation: RAT, LIVER, S-9, AROCLOR 1254, Method: PREINCUBATION) “inactive; negative”. The mutagenic call runs as follows: (Test System: AMES SALMONELLA TYPHIMURIUM, Strain/Indicator: TA1535, Metabolic Activation: HAMSTER, LIVER, S-9, AROCLOR 1254, Method: PREINCUBATION) “inactive; negative”; (Test System: AMES SALMONELLA TYPHIMURIUM, Strain/Indicator: TA1535, Metabolic Activation: NONE, Method: PREINCUBATION) “inactive; negative”; (Test System: AMES SALMONELLA TYPHIMURIUM, Strain/Indicator: TA1535, Metabolic Activation: RAT, LIVER, S-9, AROCLOR 1254, Method: PREINCUBATION) “inactive; negative”; (Test System: AMES SALMONELLA TYPHIMURIUM, Strain/Indicator: TA1537, Metabolic Activation: HAMSTER, LIVER, S-9, AROCLOR 1254, Method: PREINCUBATION) “inactive; negative”; (Test System: AMES SALMONELLA TYPHIMURIUM, Strain/Indicator: TA1537, Metabolic Activation: NONE, Method: PREINCUBATION) “inactive; negative”; (Test System: AMES SALMONELLA TYPHIMURIUM, Strain/Indicator: TA1537, Metabolic Activation: RAT, LIVER, S-9, AROCLOR 1254, Method: PREINCUBATION) “inactive; negative”.

For `CN(Cc1cccc(Cl)c1)N=O`, the mutagenic call is “active; positive” (Test System: AMES SALMONELLA TYPHIMURIUM, Strain/Indicator: TA1535, Metabolic Activation: HAMSTER, LIVER, S-9, AROCLOR 1254, Method: STANDARD PLATE) and “inactive; negative” (Test System: AMES SALMONELLA TYPHIMURIUM, Strain/Indicator: TA1535, Metabolic Activation: NONE, Method: STANDARD PLATE).

On to `CCN(CC)CCCNc1ccc2nc(C)n3c4ccc(O)cc4c(=O)c1c23`, for which the mutagenic call (Test System: CHINESE HAMSTER V-79, Strain/Indicator: V-79 (HGPRT)/6-THIOGUANINE, Metabolic Activation: NONE) was “active; positive”.

Turning to `NC(=O)OCc1ccccc1`, the mutagenic call (Test System: E. COLI, Strain/Indicator: WP2 UVRA, Metabolic Activation: NONE, Method: FLUCTUATION TEST) is “inactive; negative”.

`CC(=O)Oc1cccc2cccnc12`: the mutagenic call (Test System: AMES SALMONELLA TYPHIMURIUM, Strain/Indicator: TA100, Metabolic Activation: S-9, Method: PREINCUBATION) is “inactive; negative”.

With `O=C1c2ccccc2C(=O)c2c1ccc(O[C@@H]1O[C@H](CO[C@@H]3OC[C@@H](O)[C@H](O)[C@H]3O)[C@@H](O)[C@H](O)[C@H]1O)c2O`, the mutagenic call was “inactive; negative” under setting [1]; “inactive; negative” (Test System: AMES SALMONELLA TYPHIMURIUM, Strain/Indicator: TA98, Metabolic Activation: RAT, LIVER, S-9, PCB, Method: PREINCUBATION); “inactive; negative” under setting [2]; “inactive; negative” (Test System: AMES SALMONELLA TYPHIMURIUM, Strain/Indicator: TA100, Metabolic Activation: RAT, LIVER, S-9, PCB, Method: PREINCUBATION); “active; positive” (Test System: UDS PRIMARY RAT HEPATOCYTES, Strain/Indicator: THY INCORP, Metabolic Activation: NONE).

`C=Cc1ccc(S(=O)(=O)O)cc1`: the mutagenic call reads like this: (Test System: Ames Salmonella typhimurium, Strain/Indicator: TA98, Metabolic Activation: None, Method: Preincubation) “inactive; negative”; (Test System: Ames Salmonella typhimurium, Strain/Indicator: TA98, Metabolic Activation: Rat, Liver, S-9, Phenobarbital and 5,6-benzoflavone, Method: Preincubation) “inactive; negative”; (Test System: Ames Salmonella typhimurium, Strain/Indicator: TA100, Metabolic Activation: None, Method: Preincubation) “inactive; negative”; (Test System: Ames Salmonella typhimurium, Strain/Indicator: TA100, Metabolic Activation: Rat, Liver, S-9, Phenobarbital and 5,6-benzoflavone, Method: Preincubation) “inactive; negative”; (Test System: Ames Salmonella typhimurium, Strain/Indicator: TA1535, Metabolic Activation: None, Method: Preincubation) “inactive; negative”; (Test System: Ames Salmonella typhimurium, Strain/Indicator: TA1535, Metabolic Activation: Rat, Liver, S-9, Phenobarbital and 5,6-benzoflavone, Method: Preincubation) “inactive; negative”. In addition, the mutagenic call is “inactive; negative” (Test System: Ames Salmonella typhimurium, Strain/Indicator: TA1537, Metabolic Activation: None, Method: Preincubation); “inactive; negative” (Test System: Ames Salmonella typhimurium, Strain/Indicator: TA1537, Metabolic Activation: Rat, Liver, S-9, Phenobarbital and 5,6-benzoflavone, Method: Preincubation); “inactive; negative” (Test System: E. coli, Strain/Indicator: WP2uvrA/pKM101, Metabolic Activation: None, Method: Preincubation); “inactive; negative” (Test System: E. coli, Strain/Indicator: WP2uvrA/pKM101, Metabolic Activation: Rat, Liver, S-9, Phenobarbital and 5,6-benzoflavone, Method: Preincubation).

As for `O=[N+]([O-])c1ccc2ccc3ccc([N+](=O)[O-])cc3c2c1`, the mutagenic call (Test System: AMES SALMONELLA TYPHIMURIUM, Strain/Indicator: TA98(1,8-DNP6), Metabolic Activation: NONE, Method: STANDARD PLATE) is “active; positive”; the mutagenic call (Test System: AMES SALMONELLA TYPHIMURIUM, Strain/Indicator: TA98(NR), Metabolic Activation: NONE, Method: STANDARD PLATE) was “active; positive”; the mutagenic call (Test System: AMES SALMONELLA TYPHIMURIUM, Strain/Indicator: TA98, Metabolic Activation: NONE, Method: STANDARD PLATE) is “active; positive”; the mutagenic call (Test System: AMES SALMONELLA TYPHIMURIUM, Strain/Indicator: TA100, Metabolic Activation: NONE, Method: STANDARD PLATE) was “active; positive”; the mutagenic call (Test System: AMES SALMONELLA TYPHIMURIUM, Strain/Indicator: YG1021, Metabolic Activation: NONE, Method: STANDARD PLATE) is “active; positive”; the mutagenic call (Test System: AMES SALMONELLA TYPHIMURIUM, Strain/Indicator: YG1024, Metabolic Activation: NONE, Method: STANDARD PLATE) is “active; positive”. Also, the mutagenic call runs as follows: (Test System: AMES SALMONELLA TYPHIMURIUM, Strain/Indicator: YG1026, Metabolic Activation: NONE, Method: STANDARD PLATE) “active; positive”; (Test System: AMES SALMONELLA TYPHIMURIUM, Strain/Indicator: YG1029, Metabolic Activation: NONE, Method: STANDARD PLATE) “active; positive”.
